Source: the supplement of paper PMC7108870

What was measured:
HEK293sieSTAT3(wt) [1] = test: drug sensitivity score (DSS), cytotoxicity CellTox Green (DSS (dimensionless)); higher = more cytotoxic; extreme values may be limits of the assay; details: 72 h; STAT3 variant: wild type
Outline: (§1)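 In 384-well plates with acoustically pre-plated compounds (5 concentrations, 10-fold dilutions), 20 μl of HEK293 cells at 100,000 cells/ml were added; the cells overexpressed wild-type or mutant STAT3 and carried a STAT3-dependent luciferase reporter. Incubation lasted 72 hours at 37°C and 5% CO2 before sequential CellTox Green (485/520 nm) and CellTiter-Glo reads on a PHERAstar FS. After normalisation to negative and positive control wells, Breeze was used to derive a drug sensitivity score from the dose-response curve area.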

HEK293sieSTAT3(Y640F) [2] = test: as above; details: 72 h; STAT3 variant: Y640F (constitutively active)
Outline: as §1

HEK293sieSTAT3(wt) [3] = test: drug sensitivity score (DSS), viability CellTiter-Glo (DSS (dimensionless)); higher = more growth inhibition; extreme values may be limits of the assay; details: 72 h; STAT3 variant: wild type
Outline: as §1

HEK293sieSTAT3(Y640F) [4] = test: as above; details: 72 h; STAT3 variant: Y640F (constitutively active)
Outline: as §1

Row | Compound | drug sensitivity score (HEK293sieSTAT3(wt) [1]) | drug sensitivity score (HEK293sieSTAT3(Y640F) [2]) | drug sensitivity score (HEK293sieSTAT3(wt) [3]) | drug sensitivity score (HEK293sieSTAT3(Y640F) [4])
1 | Cc1cc([C@@H](C)Nc2ccccc2C(=O)O)c2nc(N3CCOCC3)cc(=O)n2c1 [AZD-6482] (top concentration tested 2500 nM) | 0.89 | 0 | 1.97 | 1.08
2 | C[C@@H](Nc1cc(F)cc(F)c1)c1cc(C(=O)N(C)C)cc2c(=O)cc(N3CCOCC3)oc12 [AZD-8186] (top concentration tested 1000 nM) | 0 | 0 | 0.9 | 0
3 | Cc1cc(C(=O)NOCCO)c(Nc2ccc(I)cc2F)n(C)c1=O [AZD-8330] (top concentration tested 10000 nM) | 0 | 0 | 0.01 | 7.16
4 | CCN1CCN(Cc2ccc(Nc3ncc(F)c(-c4cc(F)c5nc(C)n(C(C)C)c5c4)n3)nc2)CC1 [Abemaciclib] (top concentration tested 2500 nM) | 0 | 0 | 0.4 | 0.98
5 | CN(C)Cc1c(C(=O)NCCOc2ccc(C(=O)NO)cc2)oc2ccccc12 [Abexinostat] (top concentration tested 10000 nM) | 17.5 | 10.7 | 22.3 | 22.9
6 | C[C@]12CC[C@H](O)CC1=CC[C@@H]1[C@@H]2CC[C@]2(C)C(c3cccnc3)=CC[C@@H]12 [Abiraterone] (top concentration tested 5000 nM) | 0 | 0 | 1.01 | 2.65
7 | CN(C)C/C=C/C(=O)Nc1cc2c(Nc3ccc(F)c(Cl)c3)ncnc2cc1O[C@H]1CCOC1 [Afatinib] (top concentration tested 1000 nM) | 0 | 0 | 1.06 | 0.98
8 | Cn1ncc(Cl)c1-c1cc(C(=O)N[C@H](CN)Cc2cccc(F)c2)sc1Cl [Afuresertib] (top concentration tested 1000 nM) | 0 | 0 | 9.38 | 6.74
9 | COc1cccc2c1C(=O)c1c(O)c3c(c(O)c1C2=O)C[C@@](O)(/C(CO)=N/NC(=O)CCCCCN1C(=O)C=CC1=O)C[C@@H]3O[C@H]1C[C@H](N)[C@H](O)[C@H](C)O1 [Aldoxorubicin] (top concentration tested 1000 nM) | 0 | 0 | 21.1 | 19.7
10 | CCc1cc2c(cc1N1CCC(N3CCOCC3)CC1)C(C)(C)c1[nH]c3cc(C#N)ccc3c1C2=O [Alectinib] (top concentration tested 1000 nM) | 2.75 | 0 | 4.73 | 3.02
11 | COc1cc(Nc2ncc3c(n2)-c2ccc(Cl)cc2C(c2c(F)cccc2OC)=NC3)ccc1C(=O)O [Alisertib] (top concentration tested 10000 nM) | 8.65 | 0 | 12.1 | 9.16
12 | Oc1ncnc2[nH]ncc12 [Allopurinol] (top concentration tested 10000 nM) | 0 | 0 | 0.7 | 3.38
13 | Cc1nc(NC(=O)N2CCC[C@H]2C(N)=O)sc1-c1ccnc(C(C)(C)C(F)(F)F)c1 [Alpelisib] (top concentration tested 2500 nM) | 0 | 0 | 3.18 | 0.49
14 | CN(C)c1nc(N(C)C)nc(N(C)C)n1 [Altretamine] (top concentration tested 10000 nM) | 0 | 0 | 0 | 0
15 | CO[C@H]1/C=C\C=C(/C)C(=O)NC2=CC(=O)C(NCCN(C)C)=C(C[C@@H](C)C[C@H](OC)[C@H](O)[C@@H](C)/C=C(\C)[C@@H]1OC(N)=O)C2=O [Alvespimycin] (top concentration tested 1000 nM) | 16.2 | 7.84 | 16.6 | 14.9
16 | CN1CC[C@H](c2c(O)cc(O)c3c(=O)cc(-c4ccccc4Cl)oc23)[C@H](O)C1 [Alvocidib] (top concentration tested 10000 nM) | 17.1 | 9.09 | 24.4 | 20.1
17 | CCC1(c2ccc(N)cc2)CCC(=O)NC1=O (configuration not stated) [Aminoglutethimide] (top concentration tested 10000 nM) | 0 | 0 | 0.06 | 0.16
18 | CN(C)CCN1C(=O)c2cccc3cc(N)cc(c23)C1=O [Amonafide] (top concentration tested 10000 nM) | 7.09 | 1.87 | 15 | 11.3
19 | COc1cc(NS(C)(=O)=O)ccc1Nc1c2ccccc2nc2ccccc12 [Amsacrine] (top concentration tested 10000 nM) | 11.1 | 6.68 | 26.9 | 25.2
20 | S=C(NCc1ccc2c(c1)OCO2)N1CCN(c2ncnc3c2oc2ccccc23)CC1 [Amuvatinib] (top concentration tested 10000 nM) | 8.39 | 3.08 | 5.71 | 5.74
21 | O=C1CN2Cc3c(ccc(Cl)c3Cl)N=C2N1 [Anagrelide] (top concentration tested 10000 nM) | 0.62 | 0.01 | 0.64 | 0.64
22 | CC(C)(C#N)c1cc(Cn2cncn2)cc(C(C)(C)C#N)c1 [Anastrozole] (top concentration tested 10000 nM) | 0 | 0 | 0 | 0.01

Row | Compound | drug sensitivity score (HEK293sieSTAT3(wt) [1]) | drug sensitivity score (HEK293sieSTAT3(Y640F) [2]) | drug sensitivity score (HEK293sieSTAT3(wt) [3]) | drug sensitivity score (HEK293sieSTAT3(Y640F) [4])
23 | N#CC1(c2ccc(NC(=O)c3cccnc3NCc3ccncc3)cc2)CCCC1 [Apatinib] (top concentration tested 10000 nM) | 0.3 | 0.2 | 0 | 0.11
24 | Cc1c(CN2CCN(C(=O)[C@H](C)O)CC2)sc2c(N3CCOCC3)nc(-c3cnc(N)nc3)nc12 [Apitolisib] (top concentration tested 10000 nM) | 8.67 | 0 | 19.8 | 23.8
25 | CC(C)c1c(C(=O)Nc2ccccc2)c(-c2ccccc2)c(-c2ccc(F)cc2)n1CC[C@@H](O)C[C@@H](O)CC(=O)O [Atorvastatin] (top concentration tested 10000 nM) | 6.93 | 9.06 | 8.29 | 6.61
26 | CC(=O)OC[C@H]1O[C@@H]([S-])[C@H](OC(C)=O)[C@@H](OC(C)=O)[C@@H]1OC(C)=O.CCP(CC)CC.[Au+] [Auranofin] (top concentration tested 2500 nM) | 9.45 | 6.36 | 8.14 | 9.25
27 | CNC(=O)c1ccccc1Sc1ccc2c(/C=C/c3ccccn3)n[nH]c2c1 [Axitinib] (top concentration tested 10000 nM) | 7.83 | 4.38 | 8.07 | 5.84
28 | Nc1ncn([C@@H]2O[C@H](CO)[C@@H](O)[C@H]2O)c(=O)n1 [Azacitidine] (top concentration tested 10000 nM) | 0.87 | 0 | 2.72 | 2.86
29 | Cc1cc(-c2nc(-c3ccc(OC(F)(F)F)cc3)no2)nn1Cc1ccnc(N2CCN(C3CC3)CC2)c1 [BAY 87-2243] (top concentration tested 1000 nM) | 0 | 0 | 12.5 | 12.6
30 | Nc1nc(Nc2ccc3c(c2)CC[C@@H](N2CCCC2)CC3)nn1-c1cc2c(nn1)-c1ccccc1CCC2 [BGB324] (top concentration tested 10000 nM) | 11.9 | 6.14 | 12 | 10.2
31 | CC[C@@H]1C(=O)N(C)c2cnc(Nc3ccc(C(=O)NC4CCN(C)CC4)cc3OC)nc2N1C1CCCC1 [BI 2536] (top concentration tested 1000 nM) | 20.1 | 2.98 | 24.7 | 23.5
32 | COc1c(C)cnc(Cn2cnc3c(Cl)nc(N)nc32)c1C [BIIB021] (top concentration tested 10000 nM) | 24.2 | 9.95 | 27.9 | 24.6
33 | O=C(Nc1cccc(Nc2ncc(Br)c(NCCc3cnc[nH]3)n2)c1)N1CCCC1 [BX-912] (top concentration tested 10000 nM) | 0 | 0 | 6.67 | 5.58
34 | Cc1ccc(NC(=O)c2ccc(CN3CC[C@H](N(C)C)C3)c(C(F)(F)F)c2)cc1Nc1nccc(-c2cncnc2)n1 [Bafetinib] (top concentration tested 1000 nM) | 0 | 0 | 2.29 | 1.34
35 | CCS(=O)(=O)N1CC(CC#N)(n2cc(-c3ncnc4[nH]ccc34)cn2)C1 [Baricitinib] (top concentration tested 2500 nM) | 0.42 | 0 | 1.02 | 2.8
36 | O=C(/C=C/c1cccc(S(=O)(=O)Nc2ccccc2)c1)NO [Belinostat] (top concentration tested 10000 nM) | 8.71 | 8.83 | 13.1 | 16.9
37 | Cn1c(CCCC(=O)O)nc2cc(N(CCCl)CCCl)ccc21 [Bendamustine] (top concentration tested 10000 nM) | 0 | 0 | 3.94 | 0.53
38 | N#CC(c1ccnc(OCc2ccc(CN3CCOCC3)cc2)n1)c1nc2ccccc2s1 (configuration not stated) [Bentamapimod] (top concentration tested 10000 nM) | 0 | 0.96 | 8.85 | 5.3
39 | C=C(c1ccc(C(=O)O)cc1)c1cc2c(cc1C)C(C)(C)CCC2(C)C [Bexarotene] (top concentration tested 10000 nM) | 0 | 0 | 3.75 | 2
40 | CC(O)(CS(=O)(=O)c1ccc(F)cc1)C(=O)Nc1ccc(C#N)c(C(F)(F)F)c1 (configuration not stated) [Bicalutamide] (top concentration tested 10000 nM) | 0 | 0 | 4.54 | 3.98
41 | CCNC(=O)CCC/C=C\C[C@@H]1[C@@H](/C=C/[C@@H](O)CCc2ccccc2)[C@H](O)C[C@@H]1O [Bimatoprost] (top concentration tested 5500 nM) | 0 | 0 | 0 | 0
42 | Cn1cnc2c(F)c(Nc3ccc(Br)cc3F)c(C(=O)NOCCO)cc21 [Binimetinib] (top concentration tested 1000 nM) | 0 | 0 | 0.52 | 1.87
43 | CC[C@H](NC(=O)[C@H](C)NC)C(=O)N1C[C@@H](O)C[C@H]1Cc1c(-c2[nH]c3cc(F)ccc3c2C[C@@H]2C[C@H](O)CN2C(=O)[C@H](CC)NC(=O)[C@H](C)NC)[nH]c2cc(F)ccc12 [Birinapant] (top concentration tested 1000 nM) | 30.4 | 19.5 | 15.6 | 7.4
